Experimental data: PubChem BioAssay AID328 (DTP/NCI, 2004)
Values joined by “and” are separate entries in the source; they are usually repeats but may differ in a detail not shown here. Equal values may be shown once. Toxic doses and inconclusive results are not listed.

Test system: BDF1 mice, P388 leukemia ip, median survival T/C
Test: NCI In Vivo Anticancer Drug Screen. Data for tumor model P388 Leukemia (intraperitoneal) in B6D2F1 (BDF1) mice
Settings: endpoint: median survival time, higher = longer survival
Outline: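 Reported as T/C, where T is the survival measurement in dosed animals and C the same measurement in vehicle controls.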

[1] = dose: 25.0 mg/kg/injection, schedule: Q01DX009 (ip), vehicle: saline with Tween-80
[2] = dose: 50.0 mg/kg/injection, schedule: Q01DX009 (ip), vehicle: saline with Tween-80
[3] = dose: 100.0 mg/kg/injection, schedule: Q01DX009 (ip), vehicle: saline with Tween-80
[4] = dose: 200.0 mg/kg/injection, schedule: Q01DX009 (ip), vehicle: saline with Tween-80
[5] = dose: 100.0 mg/kg/injection, schedule: Q01DX009 (ip), vehicle: Klucel (hydroxypropylcellulose) (HPC)
[6] = dose: 25.0 mg/kg/injection, schedule: Q01DX009 (ip), vehicle: Klucel (hydroxypropylcellulose) (HPC)
[7] = dose: 50.0 mg/kg/injection, schedule: Q01DX009 (ip), vehicle: Klucel (hydroxypropylcellulose) (HPC)

CC(C)CC(NC(=O)CN)C(=O)O (configuration not stated)
T/C [1]: 98 % of control | T/C [2]: 99 % of control | T/C [3]: 102 % of control | T/C [4]: 111 % of control | T/C (dose: 200.0 mg/kg/injection, schedule: Q01DX009 (ip), vehicle: saline): 118 % of control | T/C (dose: 400.0 mg/kg/injection, schedule: Q01DX009 (ip), vehicle: saline): 96 % of control

CC=C(/C(=C/C)c1ccc(O)cc1)c1ccc(O)cc1
T/C (dose: 66.0 mg/kg/injection, schedule: Q01DX009 (ip), vehicle: saline with Tween-80): 100 % of control | T/C [3]: 109 % of control | T/C (dose: 150.0 mg/kg/injection, schedule: Q01DX009 (ip), vehicle: saline with Tween-80): 118 % of control

Cc1cc(C)c(NC(=O)N(CCCl)N=O)cc1C
T/C (dose: 20.0 mg/kg/injection, schedule: Q01DX009 (ip), vehicle: other): 110 % of control | T/C (dose: 45.0 mg/kg/injection, schedule: Q01DX009 (ip), vehicle: other): 100 % of control | T/C (dose: 50.0 mg/kg/injection, schedule: Q01DX009 (ip), vehicle: other): 122 % of control | T/C [2]: 105 % of control | T/C (dose: 50.0 mg/kg/injection, schedule: Q04DX003 (ip), vehicle: saline): 108 % of control | T/C (dose: 65.0 mg/kg/injection, schedule: Q01DX009 (ip), vehicle: other): 150 % of control | T/C [3]: 105 % of control | T/C (dose: 100.0 mg/kg/injection, schedule: Q04DX003 (ip), vehicle: saline): 108 % of control | T/C (dose: 200.0 mg/kg/injection, schedule: Q01DX009 (ip), vehicle: other): 122 % of control | T/C [4]: 105 % of control | T/C (dose: 200.0 mg/kg/injection, schedule: Q04DX003 (ip), vehicle: saline): 95 % of control

Cc1cc(=O)[nH]c(N/N=C2/CCCCC2C)n1 (configuration not stated)
T/C (dose: 8.0 mg/kg/injection, schedule: Q01DX009 (ip), vehicle: Klucel (hydroxypropylcellulose) (HPC)): 107 % of control | T/C (dose: 16.0 mg/kg/injection, schedule: Q01DX009 (ip), vehicle: Klucel (hydroxypropylcellulose) (HPC)): 107 % of control | T/C (dose: 33.0 mg/kg/injection, schedule: Q01DX009 (ip), vehicle: Klucel (hydroxypropylcellulose) (HPC)): 100 % of control | T/C [5]: 100 % of control | T/C (dose: 100.0 mg/kg/injection, schedule: Q04DX003 (ip), vehicle: Klucel (hydroxypropylcellulose) (HPC)): 109 % of control | T/C (dose: 200.0 mg/kg/injection, schedule: Q04DX003 (ip), vehicle: Klucel (hydroxypropylcellulose) (HPC)): 95 % of control

C=C1C(=O)OC(/C=C(\C)CO)C1C(C/C(C)=C/CO)OC(=O)/C(C)=C\C (configuration not stated)
T/C (dose: 12.5 mg/kg/injection, schedule: Q01DX009 (ip), vehicle: Klucel (hydroxypropylcellulose) (HPC)): 111 % of control | T/C [6]: 111 % of control | T/C [7]: 109 % of control | T/C [5]: 94 % of control | T/C (dose: 200.0 mg/kg/injection, schedule: Q01DX009 (ip), vehicle: Klucel (hydroxypropylcellulose) (HPC)): 94 % of control

O=C(O)CNC(=O)CCl
T/C [6]: 110 % of control | T/C [7]: 120 % of control | T/C [5]: 120 % of control | T/C (dose: 225.0 mg/kg/injection, schedule: Q01DX009 (ip), vehicle: Klucel (hydroxypropylcellulose) (HPC)): 86 % of control

COc1ccc(/C=C(\C)[N+](=O)[O-])cc1OC
T/C (dose: 3.13 mg/kg/injection, schedule: Q01DX009 (ip), vehicle: other): 116 % of control | T/C (dose: 6.25 mg/kg/injection, schedule: Q01DX009 (ip), vehicle: other): 116 % of control | T/C (dose: 12.5 mg/kg/injection, schedule: Q01DX009 (ip), vehicle: other): 110 % of control | T/C (dose: 25.0 mg/kg/injection, schedule: Q01DX009 (ip), vehicle: other): 118 % of control

COc1cccc2c1C(=O)c1c(O)c3c(c(O)c1C2=O)C[C@@](O)(/C(C)=N\NC=O)C[C@@H]3OC1CC(N)C(O)C(C)O1 (some centres not stated)
T/C (dose: 1.0 mg/kg/injection, schedule: Q01DX009 (ip), vehicle: saline): 96 % of control | T/C (dose: 2.0 mg/kg/injection, schedule: Q01DX009 (ip), vehicle: saline): 107 % of control | T/C (dose: 16.0 mg/kg/injection, schedule: Q01DX009 (ip), vehicle: saline): 180 % of control

Nc1ncn(C2OC(CO)C(O)C2O)c(=O)n1 (configuration not stated)
T/C (dose: 0.16 mg/kg/injection, schedule: Q01DX009 (ip), vehicle: saline): 91 % of control | T/C (dose: 0.25 mg/kg/injection, schedule: Q01DX009 (ip), vehicle: saline): 116 % of control | T/C (dose: 0.38 mg/kg/injection, schedule: Q01DX009 (ip), vehicle: saline): 150 % of control | T/C (dose: 0.75 mg/kg/injection, schedule: Q01DX009 (ip), vehicle: saline): 181 % of control | T/C (dose: 0.9 mg/kg/injection, schedule: Q01DX009 (ip), vehicle: saline): 210 % of control | T/C (dose: 1.0 mg/kg/injection, schedule: Q01DX005 (ip), vehicle: saline): 166 % of control | T/C (dose: 1.5 mg/kg/injection, schedule: Q01DX009 (ip), vehicle: saline): 195 % of control and 202 % of control | T/C (dose: 1.9 mg/kg/injection, schedule: Q01DX009 (ip), vehicle: saline): 235 % of control | T/C (dose: 2.0 mg/kg/injection, schedule: Q01DX005 (ip), vehicle: saline): 201 % of control | T/C (dose: 2.2 mg/kg/injection, schedule: Q01DX009 (ip), vehicle: saline): 235 % of control and 236 % of control and 216 % of control | T/C (dose: 3.0 mg/kg/injection, schedule: Q01DX009 (ip), vehicle: saline): 100 % of control | T/C (dose: 3.3 mg/kg/injection, schedule: Q01DX009 (ip), vehicle: saline): 260 % of control and 275 % of control and 280 % of control | T/C (dose: 4.0 mg/kg/injection, schedule: Q01DX005 (ip), vehicle: saline): 204 % of control | T/C (dose: 4.25 mg/kg/injection, schedule: Q04DX003 (ip), vehicle: saline): 172 % of control | T/C (dose: 5.0 mg/kg/injection, schedule: Q01DX009 (ip), vehicle: saline): 254 % of control and 336 % of control and 365 % of control | T/C (dose: 5.0 mg/kg/injection, schedule: Q04DX004 (ip), vehicle: saline): 207 % of control | T/C (dose: 6.0 mg/kg/injection, schedule: Q01DX009 (ip), vehicle: saline): 104 % of control | T/C (dose: 6.48 mg/kg/injection, schedule: Q04DX003 (ip), vehicle: saline): 220 % of control | T/C (dose: 7.0 mg/kg/injection, schedule: Q04DX004 (ip), vehicle: saline): 216 % of control | T/C (dose: 7.5 mg/kg/injection, schedule: Q01DX009 (ip), vehicle: saline): 100 % of control | T/C (dose: 8.5 mg/kg/injection, schedule: Q01DX009 (ip), vehicle: saline): 90 % of control | T/C (dose: 10.0 mg/kg/injection, schedule: Q04DX004 (ip), vehicle: saline): 112 % of control and 219 % of control | T/C (dose: 10.8 mg/kg/injection, schedule: Q04DX003 (ip), vehicle: saline): 177 % of control | T/C (dose: 11.0 mg/kg/injection, schedule: Q04DX004 (ip), vehicle: saline): 248 % of control | T/C (dose: 12.0 mg/kg/injection, schedule: Q04DX003 (ip), vehicle: saline): 225 % of control | T/C (dose: 15.0 mg/kg/injection, schedule: Q04DX004 (ip), vehicle: saline): 226 % of control and 106 % of control | T/C (dose: 16.0 mg/kg/injection, schedule: Q04DX004 (ip), vehicle: saline): 272 % of control | T/C (dose: 19.0 mg/kg/injection, schedule: Q04DX003 (ip), vehicle: saline): 233 % of control | T/C (dose: 20.0 mg/kg/injection, schedule: Q04DX004 (ip), vehicle: saline): 165 % of control | T/C (dose: 44.0 mg/kg/injection, schedule: Q01DX001 (ip), vehicle: saline): 176 % of control | T/C (dose: 49.0 mg/kg/injection, schedule: Q01DX001 (ip), vehicle: saline): 170 % of control | T/C (dose: 73.0 mg/kg/injection, schedule: Q01DX001 (ip), vehicle: saline): 176 % of control and 182 % of control | T/C (dose: 110.0 mg/kg/injection, schedule: Q01DX001 (ip), vehicle: saline): 157 % of control and 190 % of control | T/C (dose: 150.0 mg/kg/injection, schedule: Q01DX001 (ip), vehicle: saline): 120 % of control

CCOc1c([N+](=O)[O-])cc([N+](=O)[O-])c2ccccc12
T/C [1]: 96 % of control | T/C [2]: 96 % of control | T/C [3]: 93 % of control

S=c1[nH]ccn2cnnc12
T/C (dose: 100.0 mg/kg/injection, schedule: Q01DX001 (ip), vehicle: saline with Tween-80): 88 % of control | T/C (dose: 200.0 mg/kg/injection, schedule: Q01DX001 (ip), vehicle: saline with Tween-80): 106 % of control | T/C (dose: 400.0 mg/kg/injection, schedule: Q01DX001 (ip), vehicle: saline with Tween-80): 100 % of control
